Experimental data as given in patent publication US20100311683A1, “CYTIDINE ANALOGS FOR TREATMENT OF MYELODYSPLASTIC SYNDROMES” (priority 2007, published 2010).

Assays:
[1] = system: patients ≥60 years with AML
[2] = system: patients with hematologic disorders, predominantly low-risk MDS; assay: AVIDA longitudinal registry of patients receiving azacitidine (transfusion independence); assay type: in vivo, human
Description: The study assessed usage patterns and transfusion requirements in patients enrolled in AVIDA, a longitudinal registry of patients with hematologic disorders receiving azacitidine, to further the understanding of current azacitidine treatment patterns in the community, identify common care procedures and concomitant treatments, and document transfusion requirements. Baseline demographics and disease characteristics were obtained at enrollment.

`Nc1ncn([C@@H]2O[C@H](CO)[C@@H](O)[C@H]2O)c(=O)n1` [azacitidine, 4-amino-1-β-D-ribofuranosyl-1,3,5-triazin-2(1H)-one] was tested, and the fatigue ([1]; 5/8) was 63%, the “mild injection site skin reaction” value ([1]; 5/8) was 63% and the “mean overall survival time from diagnosis” value ([1]; all patients) was 180 days. For the same molecule, the overall response rate ([1]; azacitidine 100 mg/m2 SC 5 days every 28 days, 6/8 patients) was 75%, the “mean number of days hospitalized during therapy” value ([1]; in vivo) was 18 days and the treatment related deaths ([1]; in vivo) was “No treatment related deaths were observed”. The “complete response (CR)” value ([1]; n=2 of 8) was 25%, the “partial response (PR)” value ([1]; n=4 of 8) was 50% and the “mean overall survival time” value ([1]; responders) was 200 days. For the same molecule, the “responders who became independent of RBC transfusion” value ([1]; two of the six responders) was 33%, the “patients with a history of transfusions who achieved transfusion-independence” value ([2]; 16/43, at least 2 cycles of azacitidine) was 37% and the “patients without a history of transfusion who achieved transfusion independence” value ([2]; 22/27, at least 2 cycles of azacitidine) was 81%. For the same molecule, the “median cycles to transfusion independence” value ([2]; patients with a history of transfusions) was 6 cycles and the “median cycles to transfusion independence” value ([2]; patients without a history of transfusion) was 4 cycles.
